Laboratory results taken from publication PMC6627487, “Butenolide Derivatives with α-Glucosidase Inhibitions from the Deep-Sea-Derived Fungus Aspergillus terreus YPGA10” (Marine Drugs, 2019).
Where two headings read alike, the source gives them in different places.

Target: α-glucosidase from Saccharomyes cerevisiae (Saccharomyces cerevisiae, UniProt P53341)
Test: α-Glucosidase inhibition assay (PNPG substrate, OD 405 nm)
Assay type: biochemical
Settings: for inhibition at 100 µM: read-out: %Inhibition (100 μM); for inhibitory activity against α-glucosidase, in words: at 100 μM; for inhibition at 50 µM: read-out: %Inhibition (50 μM)
Protocol: The α-glucosidase inhibitory effect was assessed using a previously described method with slight modification. 0.2 U of α-glucosidase from Saccharomyes cerevisiae purchased from Sigma-Aldrich (St. Louis, MO, USA) was diluted to 0.1 M phosphate buffer consisting of Na2HPO4 and NaH2PO4 (pH 6.8). The assay was conducted in a 200 μL reaction system containing 148 μL of the buffer, 25 μL of diluted enzyme solution, and 2 μL of DMSO or sample (dissolved in DMSO). After 20 min of incubation in the 96-well plates at 37 °C, 25 μL of 0.4 mM 4-nitrophenyl-[…]-D-glucopyranoside (PNPG, Aladdin, Shanghai, China) was added as a substrate to start the enzymatic reaction. The plate was incubated for an additional 15 min at 37 °C, followed by the measurement of the optical density (OD). The final concentrations of tested compounds were between 0.39 and 100 μM. The OD was measured at an absorbance wavelength of 405 nm using a Microplate Reader (Tecan, Switzerland).

[1] = α-glucosidase, compound at 100 μM

α-glucosidase from Saccharomyes cerevisiae, sequence (P53341 whole entry): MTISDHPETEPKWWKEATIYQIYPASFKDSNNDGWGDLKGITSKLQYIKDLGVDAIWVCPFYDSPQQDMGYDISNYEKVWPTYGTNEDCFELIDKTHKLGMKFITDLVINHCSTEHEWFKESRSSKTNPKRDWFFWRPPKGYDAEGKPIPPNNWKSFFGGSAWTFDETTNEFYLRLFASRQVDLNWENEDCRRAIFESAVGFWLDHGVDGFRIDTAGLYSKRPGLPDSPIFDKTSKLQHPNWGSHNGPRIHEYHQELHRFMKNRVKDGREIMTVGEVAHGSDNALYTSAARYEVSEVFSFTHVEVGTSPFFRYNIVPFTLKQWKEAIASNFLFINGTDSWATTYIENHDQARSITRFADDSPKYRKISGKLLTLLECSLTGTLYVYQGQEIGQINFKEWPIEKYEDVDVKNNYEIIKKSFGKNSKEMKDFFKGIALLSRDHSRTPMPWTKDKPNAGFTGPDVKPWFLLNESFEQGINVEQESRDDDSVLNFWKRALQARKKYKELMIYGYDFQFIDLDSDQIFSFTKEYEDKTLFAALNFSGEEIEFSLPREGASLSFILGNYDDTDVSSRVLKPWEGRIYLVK

SMILES	inhibition at 100 µM [1] [%]	inhibition at 100 µM [%]	inhibitory activity against α-glucosidase, in words	inhibition at 50 µM [%]
COC(=O)[C@]1(Cc2ccc3c(c2)C[C@H](C(C)(C)O)O3)OC(=O)C(O)=C1c1ccc(O)cc1 [Compound 4, butyrolactone IV]		37.3		
COC(=O)[C@]1(Cc2ccc(O)c(CC=C(C)C)c2)OC(=O)C(O)=C1c1ccc(O)cc1 [Compound 6, butyrolactone I]		100		89.4
CCOC(=O)[C@]1(Cc2ccc(O)c(CC=C(C)C)c2)OC(=O)C(O)=C1c1ccc(O)cc1 [Compound 7, butyrolactone VII]		100		98.7
COC(=O)[C@]1(Cc2ccc3c(c2)CCC(C)(C)O3)OC(=O)C(O)=C1c1ccc(O)cc1 [Compound 8, aspernolide A]		89.2	significant inhibition	

Now from value to compound, other results behind:

inhibition at 100 µM [1] [%]	SMILES	inhibition at 100 µM [%]	inhibitory activity against α-glucosidase, in words	inhibition at 50 µM [%]
18.6	COC(=O)[C@]1(Cc2ccc3c(c2)C[C@H](C(C)(C)O)O3)OC(=O)C(O)=C1c1ccccc1 [Compound 1, Aspernolide N]			
23.2	CCOC(=O)[C@]1(Cc2ccc3c(c2)C[C@H](C(C)(C)O)O3)OC(=O)C(O)=C1c1ccc(O)cc1 [Compound 2, Aspernolide O]			
26.4	CCOC(=O)[C@]1(Cc2ccc3c(c2)CC(O)C(C)(C)O3)OC(=O)C(O)=C1c1ccc(O)cc1 (stereo partly shown) [Compound 3, Aspernolide P]			
21.6	COC(=O)[C@]1(Cc2ccc3c(c2)C[C@H](O)C(C)(C)O3)OC(=O)C(O)=C1c1ccc(O)cc1 [Compound 5, butyrolactone V]		negligible inhibitory activity	
90.4	COC(=O)[C@]1(Cc2ccc3c(c2)C=CC(C)(C)O3)OC(=O)C(O)=C1c1ccc(O)cc1 [Compound 9, aspernolide E]			
